Test results reported in patent US20070049599A1, “Use of bh4 for the treatment of respiratory diseases” (Altana Pharma AG, priority 2003, published 2007).

Legend:
human iNOS [1] = target: T1, human iNOS (Homo sapiens, UniProt P35228); experiment: Superoxide production from recombinant BH4-free and arginine-free human iNOS (ESR, CPH spin trap); format: biochemical; design: made in house; host or cells: E. coli; conditions: incubation with arginine alone, FIG. 3b
Experimental: Recombinant human iNOS was overexpressed in E. coli and purified using an ADP sepharose column and subsequently a Superdex column to yield BH4free and arginine-free iNOS. 1 μg of human iNOS was incubated together with 200 μM NADPH and 1 mM CPH. After incubation at 37° C. for 60 min the superoxide produced was measured as stable CPH radical in a Bruker e-scan device via electron spin resonance spectroscopy (ESR).

[2] = tested on: EA.hy926 endothelial cells; experiment: Conversion of BH4 derivatives into BH4 by endothelial cells (intracellular biopterin content by HPLC); format: cell-based; conditions: 100 μM, FIG. 1
Experimental: Endothelial cells (HUVEC and ERhy926) were cultivated in the appropriate culture medium and treated with sepiapterin and BH4 (100 μM each) respectively, for the indicated time periods. After excess wash steps using PBS the cells were lysed and the biopterin content was analysed by reversed phase HPLC with fluorescence detection (excitation: 350 nm, emission: 450 nm) after iodine reduction and semi-purification on Dowex beads as described in detail in Hesslinger et al., J. Biol. Chem. 273, 21616-21622, 1998.

human iNOS [3] = target: T1, human iNOS; experiment: Promotion of NO synthesis in DAHP-pretreated HEK293iNOS cells (Griess assay); format: cell-based; conditions: HEK293iNOS cells pretreated with 10 mM DAHP, increasing concentrations, concentration-dependent, FIG. 2
Experimental: HEK293 cells stably transfected with human iNOS under the transcriptional control of a PonA-inducible promoter were treated with 10 mM DAHP (diaminohydroxypyridin), an inhibitor of GTP cyclohydrolase (Xie et al., J. Biol. Chem. 273, 21091-21098, 1998), to block endogenous production of tetrahydrobiopterin. After stimulating iNOS expression with […] PonA for 24 h and concomitant treatment with 10 mM DAHP increasing concentrations of BH4 or sepiapterin were added and the NO production was measured using the Griess assay to analyse the stable NO products nitrite and nitrate. Nitrate was reduced to nitrite by nitrate reductase and its absorption was determined at 544 nm in a Wallac spectrophotometer.

Compound	reduction of superoxide production (human iNOS [1]) [%]	conversion of exogenous compound into intracellular biopterin [2]	NO synthesis from iNOS (nitrite/nitrate, Griess assay) (human iNOS [3])
N=C(N)NCCC[C@H](N)C(=O)O [arginine]	50	–	–
C[C@H](O)C(=O)C1=Nc2c(nc(N)[nH]c2=O)NC1 [sepiapterin]	–	effectively converted into intracellular biopterin within a few minutes	promoted NO synthesis
